Results on 13 molecules are retold here after US20260131016A1, “NOVEL AURISTATIN ANALOGS AND IMMUNOCONJUGATES THEREOF” (ADCENTRX THERAPEUTICS INC., priority 2021, published 2026).

Square brackets hold non-standard residues; d marks the D form. Peptide text beside a SMILES is read from it. * marks the point of attachment. Dolaproine = CO[C@@H]([C@@H]1CCCN1)[C@@H](C)C(=O)O; Dil = CC[C@H](C)[C@H](NC)[C@@H](CC(=O)O)OC; NMe2Val = CC(C)[C@@H](C(=O)*)N(C)C

This assay concerns HCC1954 breast ductal carcinoma. Description: Cell viability (Cell Titer Glo 2.0) in HCC1954, 120 hours. The class given is cell-based. As to conditions: for IC50[N—Me amide]/IC50[NH-amide]: HCC1954 5-Day Assay, N-methylation of the amide between P4 and P5; for IC50: Homo sapiens, HCC1954, 120 h, read-out: IC50 (nM), in vitro potency in HCC1954. How it is done:
HCC1954 breast ductal carcinoma and T47D cells (ATCC, Manassas, VA, USA) were seeded into 384-well white-walled culture plates and allowed to adhere for 2-4 hours. Cells were then treated at least in duplicate by addition of 5-fold serially diluted test articles prepared at 2× final concentration and incubated at 37° C. for 120 hours. Cell viability following treatment was determined by Cell Titer Glo 2.0 Assay (Promega, Madison, WI, USA) and normalized to non-treated controls. Dose-response relationships were analyzed using GraphPad Prism (La Jolla, CA, USA), and IC50 values were derived from non-linear regression analyses using a 4-parameter logistic equation.
In general terms: In ATP-based viability assays light output follows the ATP content of the culture.

Regarding `CC[C@H](C)[C@@H]([C@@H](CC(=O)N1CCC[C@H]1[C@H](OC)[C@@H](C)C(=O)N[C@H](C)[C@@H](O)c1ccccc1)OC)N(C)C(=O)[C@@H](NC(=O)[C@H](C(C)C)N(C)C)C(C)C` [Auristatin E, reference compound], the “IC50[N—Me amide]/IC50[NH-amide]” value is on record as 23. Still for that read-out and setting: for `CC[C@H](C)[C@@H]([C@@H](CC(=O)N1CCC[C@H]1[C@H](OC)[C@@H](C)C(=O)N[C@@H](Cc1ccccc1)C(=O)OC)OC)N(C)C(=O)[C@@H](NC(=O)[C@H](C(C)C)N(C)C)C(C)C` [Auristatin PHE, reference compound] (NMe2Val-V[Dil][Dolaproine]F-OMe) the value was 139. With `CC[C@H](C)[C@@H]([C@@H](CC(=O)N1CCC[C@H]1[C@H](OC)[C@@H](C)C(=O)N(C)CCc1cccc(N)c1)OC)N(C)C(=O)[C@@H](NC(=O)[C@@H](C)N(C)C)C(C)C` [Compound 3, (S)-N-((3R,4S,5S)-1-((S)-2-((IR,2R)-3-((3-aminophenethyl)(methyl)amino)-1-methoxy-2-methyl-3-oxopropyl)pyrrolidin-1-yl)-3-methoxy-5-methyl-1-oxoheptan-4-yl)-2-((R)-2-(dimethylamino)propanamido)-N,3-dimethylbutanamide], the IC50 – broadly, the point on the concentration scale where inhibition reaches its midpoint – was less than 5 nM. Take `CC[C@H](C)[C@@H]([C@@H](CC(=O)N1CCC[C@H]1[C@H](OC)[C@@H](C)C(=O)N(C)CCc1cccc(N)c1)OC)N(C)C(=O)[C@@H](NC(=O)CN(C)C)C(C)C` [Compound 4, (S)-N-((3R,4S,5S)-1-((S)-2-((1R,2R)-3-((3-aminophenethyl)(methyl)amino)-1-methoxy-2-methyl-3-oxopropyl)pyrrolidin-1-yl)-3-methoxy-5-methyl-1-oxoheptan-4-yl)-2-(2-(dimethylamino)acetamido)-N,3-dimethylbutanamide]: the IC50 is less than 5 nM.

Turning to `CC[C@H](C)[C@@H]([C@@H](CC(=O)N1CCC[C@H]1[C@H](OC)[C@@H](C)C(=O)N(C)CCc1cccc(N)c1)OC)N(C)C(=O)[C@@H](NC(=O)C(C)(C)CN(C)C)C(C)C` [Compound 5, (S)-N-((3R,4S,5S)-1-((S)-2-((1R,2R)-3-((3-aminophenethyl)(methyl)amino)-1-methoxy-2-methyl-3-oxopropyl)pyrrolidin-1-yl)-3-methoxy-5-methyl-1-oxoheptan-4-yl)-2-(3-(dimethylamino)-2,2-dimethylpropanamido)-N,3-dimethylbutanamide], the IC50 fell in the range of 5 to 10 nM. Still for that read-out and setting: as for `CC[C@H](C)[C@@H]([C@@H](CC(=O)N1CCC[C@H]1[C@H](OC)[C@@H](C)C(=O)N(C)CCc1cccc(N)c1)OC)N(C)C(=O)[C@@H](NC(=O)[C@@H]1CCCN(C)C1)C(C)C` [Compound 6, (R)-N-((S)-1-(((3R,4S,5S)-1-((S)-2-((IR,2R)-3-((3-aminophenethyl)(methyl)amino)-1-methoxy-2-methyl-3-oxopropyl)pyrrolidin-1-yl)-3-methoxy-5-methyl-1-oxoheptan-4-yl)(methyl)amino)-3-methyl-1-oxobutan-2-yl)-1-methylpiperidine-3-carboxamide], the figure is more than 10 nM. On to `CC[C@H](C)[C@@H]([C@@H](CC(=O)N1CCC[C@H]1[C@H](OC)[C@@H](C)C(=O)N(C)CCc1cccc(N)c1)OC)N(C)C(=O)[C@@H](NC(=O)C(C)(C)N(C)C)C(C)C` [Compound 7, (S)-N-((3R,4S,5S)-1-((S)-2-((IR,2R)-3-((3-aminophenethyl)(methyl)amino)-1-methoxy-2-methyl-3-oxopropyl)pyrrolidin-1-yl)-3-methoxy-5-methyl-1-oxoheptan-4-yl)-2-(2-(dimethylamino)-2-methylpropanamido)-N,3-dimethylbutanamide], for which the IC50 was less than 5 nM. On the same count and under the same terms, for `CC[C@H](C)[C@@H]([C@@H](CC(=O)N1CCC[C@H]1[C@H](OC)[C@@H](C)C(=O)N(C)CCc1cccc(N)c1)OC)N(C)C(=O)[C@@H](NC(=O)[C@@H]1CCCN1C)C(C)C` [Compound 8] the value was less than 5 nM; for `CC[C@H](C)[C@@H]([C@@H](CC(=O)N1CCC[C@H]1[C@H](OC)[C@@H](C)C(=O)N(C)CCc1cccc(N)c1)OC)N(C)C(=O)[C@@H](NC(=O)[C@H]1CCCN1C)C(C)C` [Compound 9, (R)-N-((S)-1-(((3R,4S,5S)-1-((S)-2-((1R,2R)-3-((3-aminophenethyl)(methyl)amino)-1-methoxy-2-methyl-3-oxopropyl)pyrrolidin-1-yl)-3-methoxy-5-methyl-1-oxoheptan-4-yl)(methyl)amino)-3-methyl-1-oxobutan-2-yl)-1-methylpyrrolidine-2-carboxamide], less than 5 nM. In the case of `CC[C@H](C)[C@@H]([C@@H](CC(=O)N1CCC[C@H]1[C@H](OC)[C@@H](C)C(=O)N(C)CCc1cccc(N)c1)OC)N(C)C(=O)[C@@H](NC(=O)[C@@H]1CCN(C)C1)C(C)C` [Compound 10, (R)-N-((S)-1-(((3R,4S,5S)-1-((S)-2-((IR,2R)-3-((3-aminophenethyl)(methyl)amino)-1-methoxy-2-methyl-3-oxopropyl)pyrrolidin-1-yl)-3-methoxy-5-methyl-1-oxoheptan-4-yl)(methyl)amino)-3-methyl-1-oxobutan-2-yl)-1-methylpyrrolidine-3-carboxamide], the IC50 is more than 10 nM. On the same count and under the same terms, for `CC[C@H](C)[C@@H]([C@@H](CC(=O)N1CCC[C@H]1[C@H](OC)[C@@H](C)C(=O)N(C)CCc1cccc(N)c1)OC)N(C)C(=O)[C@@H](NC(=O)[C@H]1CCCCN1C)C(C)C` [Compound 11, (R)-N-((S)-1-(((3R,4S,5S)-1-((S)-2-((1R,2R)-3-((3-aminophenethyl)(methyl)amino)-1-methoxy-2-methyl-3-oxopropyl)pyrrolidin-1-yl)-3-methoxy-5-methyl-1-oxoheptan-4-yl)(methyl)amino)-3-methyl-1-oxobutan-2-yl)-1-methylpiperidine-2-carboxamide] the value was less than 5 nM; for `CC[C@H](C)[C@@H]([C@@H](CC(=O)N1CCC[C@H]1[C@H](OC)[C@@H](C)C(=O)N(C)CCc1cccc(N)c1)OC)N(C)C(=O)[C@@H](NC(=O)C1(N(C)C)CCC1)C(C)C` [Compound 12, N-((S)-1-(((3R,4S,5S)-1-((S)-2-((IR,2R)-3-((3-aminophenethyl)(methyl)amino)-1-methoxy-2-methyl-3-oxopropyl)pyrrolidin-1-yl)-3-methoxy-5-methyl-1-oxoheptan-4-yl)(methyl)amino)-3-methyl-1-oxobutan-2-yl)-1-(dimethylamino)cyclobutanecarboxamide], less than 5 nM; for `CC[C@H](C)[C@@H]([C@@H](CC(=O)N1CCC[C@H]1[C@H](OC)[C@@H](C)C(=O)N(C)CCc1cccc(N)c1)OC)N(C)C(=O)[C@@H](NC(=O)[C@@H]1CCCCN1C)C(C)C` [Compound 13, (S)-N-((S)-1-(((3R,4S,5S)-1-((S)-2-((IR,2R)-3-((3-aminophenethyl)(methyl)amino)-1-methoxy-2-methyl-3-oxopropyl)pyrrolidin-1-yl)-3-methoxy-5-methyl-1-oxoheptan-4-yl)(methyl)amino)-3-methyl-1-oxobutan-2-yl)-1-methylpiperidine-2-carboxamide], less than 5 nM.
